Ends that are not written are not given here.
Legend:
HLA-A*02:01 = HLA-A*02:01 (Homo sapiens, UniProt P04439, D140Y/D185E/D98H/E176V/E277Q/G131W/G231S/I119V/I121R/I166T/I218V/L300P/L318F/N151K/N90K/P208A/P217A/Q86G/Q94H/R138H/R169H/T345S); assay type: binding; conditions: for Average %: average of Exch I and Exch II, relative to exchange control peptide Pos (100%); for Exch I (%): first UV-induced peptide exchange; for Exch I (%) / Exch II (%): absorbance relative to exchange control peptide Pos (100%); for Exch II (%): second UV-induced peptide exchange
[1] = system: CD8+ T cells from HLA-02:01+ PBMCs; assay: Frequency of double positive T cells for mimic and mutant tetramers (flow cytometry); assay type: cell-based, human
Protocol: Preparation of PBMCs: Vials of HLA-02:01^+ PBMCs frozen from donors (Hemacare) were removed from LN2 storage and rapidly thawed in a 37° C. water bath. The cells were transferred to a 50 mL conical tube containing 40 mL warm media (RPMI 1640 medium+10% fetal bovine serum (FBS)+1% Penicillin streptomycin solution), spun at 1300 rpm for 5 minutes at room temperature. The cell pellet was resuspended in 2 mL EASYSEP™ buffer and cells were counted using trypan blue live dead marker using a haemocytometer.
Enrichment of CD8+ T cells: To enrich the CD8+ T cells from the PBMCs, EASYSEP™ Human CD8+ T Cell Isolation Kit was used as per the manufacturer's instructions. Post enrichment, the cell pellet was resuspended in Dulbecco's phosphate-buffered saline (DPBS) and cells were counted as above. To determine the viability, LIVE/DEAD™ Fixable Violet Dead Cell Stain Kit was used at 0.5 μL/1×10^6/100 μL cell suspension and incubated at room temperature for 20 minutes. At the end of incubation period, FACS buffer (DPBS+2% FBS) was added and the cells were spun at 1300 rpm for 5 minutes at room temperature. The cell pellet was resuspended in FACS buffer, trypan blue was added, and the cell count was determined using a haemocytometer. The cell density was maintained at 1×10^6/50 μL FACS buffer. 3 μL Fc block was added per 1×10^6 cells and incubated for 10 minutes at room temperature in the dark. At the end of the incubation, mimic tetramer and the corresponding mutant tetramers were added at 3 μL tetramer/1×10^6 cells.
For frequency determination, 2×10^6 cells were used for test samples and 1×10^6 cells were used for control samples where negative tetramers were added in place of the mimic or mutant tetramers. A sample where no tetramers were added was kept as unstained control. The samples were incubated at room temperature for 30 minutes in dark. At the end of incubation period, CD8 antibody was added at 2 μL/1×10^6 cells and the samples were incubated for another 30 minutes at room temperature in dark. At the end of incubation, FACS buffer was added to the samples and the samples were spun at 1300 rpm for 5 minutes. The pellet was resuspended in 5 mL FACS buffer and the cells were spun at 1300 rpm for 5 minutes. The pellet was resuspended in 200 μL FACS buffer and events were acquired using the Novocyte flow cytometer.
The cells were acquired on the Novocyte flow cytometer and gated on forward scatter height (FSC-H) versus side scatter height (SSC-H). The cells high on FSC-H versus SSC-H were gated as lymphocytes. From the lymphocytes, live cells were gated by selecting the pacific blue negative cells on an FSC-H versus Pacific Blue-H plot. From the live cells, single cells were gated on FSC-H versus forward scatter area (FSC-A). CD8+ T cells were gated from the singlets as Alexa Fluor 700 positive cells. For gating phycoerythrin (PE) conjugated tetramer positive cells, the CD8^+ cells were gated on Alexa Fluor 700-H versus PE-H and the double positive cells were considered as CD8+ tetramer+. For gating allophycocyanin (APC) conjugated tetramer positive cells, the CD8^+ cells were gated on Alexa Fluor 700-H versus APC-H and the double positive cells were considered as CD8+tetramer+. All gates were set using the negative tetramers to eliminate non-specific binding. The dual positive cells that were mimic and mutant tetramer positive cells were gated by plotting PE-H versus APC-H within the CD8^+ cells.

[2] = donor 17042765, frequency of double positive T cells at least 2-fold higher than the background (negative tetramers)
[3] = donor 19054445, frequency of double positive T cells at least 2-fold higher than the background (negative tetramers)

For 6 (LVVVGACGV) [compound 6], the Average % (HLA-A*02:01) was 7.0%, the “Exch I (%)” value (HLA-A*02:01) was 6.5% and the “Exch II (%)” value (HLA-A*02:01) was 7.5%.

In the case of 7 (LVVVGAVGV) [compound 7], the Average % (HLA-A*02:01) is reported as 4.5%, the “Exch I (%)” value (HLA-A*02:01) is reported as 4.3% and the “Exch II (%)” value (HLA-A*02:01) is reported as 4.6%.

In the case of 99 (NLVPMVATL) [compound 99], the Average % (HLA-A*02:01) is reported as 23.6%, the “Exch I (%)” value (HLA-A*02:01) is reported as 26.8% and the “Exch II (%)” value (HLA-A*02:01) is reported as 20.4%.

For “Mutant (SEQ ID NO: 2) Mimic (SEQ ID NO: 29): pair of tetramers loaded with mutant YLDCGIHSG (APC) and mimic YLDCGIHSV (PE) (not fully specified; cysteine pairing not given here)”, the “Frequency (%) of double positive T cells within CD8+ compartment of donors” value (“Frequency (%)” below) ([1]; Donor ID 20001476) was 0.075%, the “Frequency (%)” value ([1]; Donor ID 20001487) was 0.000% and the “Frequency (%)” value ([1]; Donor ID 20061357) was 0.095%. The “Frequency (%)” value ([1]; Donor ID 20061599) was 0.000%, the “Frequency (%)” value ([1]; Donor ID 20061661) was 0.000% and the “Frequency (%)” value ([1]; Donor ID 20062224) was 0.000%. For the same substance, the “Frequency (%)” value ([1]; Donor ID 20062384) was 0.000%.

With “Mutant (SEQ ID NO: 3) Mimic (SEQ ID NO: 32): pair of tetramers loaded with mutant YLDSGIHFG (APC) and mimic YLDSGIHFV (PE) (not fully specified)” the “Frequency (%)” value ([1]; Donor ID 20001476) was 0.051%, the “Frequency (%)” value ([1]; Donor ID 20001487) was 0.000% and the “Frequency (%)” value ([1]; Donor ID 20061357) was 0.007%. The “Frequency (%)” value ([1]; Donor ID 20061599) was 0.000%, the “Frequency (%)” value ([1]; Donor ID 20061661) was 0.000% and the “Frequency (%)” value ([1]; Donor ID 20062224) was 0.000%. The “Frequency (%)” value ([1]; Donor ID 20062384) was 0.023%.

“Mutant (SEQ ID NO: 9) Mimic (SEQ ID NO: 45): pair of tetramers loaded with mutant ILNREIDFA (PE) and mimic ILNREIDFV (APC) (not fully specified)” was tested, and the “Frequency (%)” value ([1]; Donor ID 17042380) was 0.05%, the “Frequency (%)” value ([1]; Donor ID 17042765) was 0.14% and the “Frequency (%)” value ([1]; Donor ID 18047563) was 0.01%. The “Frequency (%)” value ([1]; Donor ID 19053796) was 0.1%, the “Frequency (%)” value ([1]; Donor ID 19054141) was 0.03% and the “Frequency (%)” value ([1]; Donor ID 19054183) was 0.01%. For the same substance, the “Frequency (%)” value ([1]; Donor ID 19054445) was 0.24%, the “Frequency (%)” value ([1]; Donor ID 19054456) was 0.01% and the “T-cells positive for mutant-mimic pair” value [1, 2] was “positive”. For the same substance, the “T-cells positive for mutant-mimic pair” value ([1]; donor 19053796) was “positive” and the “T-cells positive for mutant-mimic pair” value [1, 3] was “positive”.

With “Mutant (SEQ ID NO: 13) Mimic (SEQ ID NO: 59): pair of tetramers loaded with mutant KTYPVQLWV (APC) and mimic KMYPVQLWL (PE) (not fully specified)” the “Frequency (%)” value ([1]; Donor ID 17042380) was 0.04%, the “Frequency (%)” value ([1]; Donor ID 17042765) was 0.13% and the “Frequency (%)” value ([1]; Donor ID 18047563) was 0.01%. For the same substance, the “Frequency (%)” value ([1]; Donor ID 19053796) was 0.06%, the “Frequency (%)” value ([1]; Donor ID 19054141) was 0.02% and the “Frequency (%)” value ([1]; Donor ID 19054183) was 0.01%. The “Frequency (%)” value ([1]; Donor ID 19054445) was 0.38%, the “Frequency (%)” value ([1]; Donor ID 19054456) was 0% and the “T-cells positive for mutant-mimic pair” value [1, 2] was “positive”. The “T-cells positive for mutant-mimic pair” value ([1]; donor 19053796) was “positive” and the “T-cells positive for mutant-mimic pair” value [1, 3] was “positive”.

“Mutant (SEQ ID NO: 16) Mimic (SEQ ID NO: 64): pair of tetramers loaded with mutant ALNNMFCQL (PE) and mimic ALNNMFCQV (APC) (not fully specified; cysteine pairing not given here)” was tested, and the “Frequency (%)” value ([1]; Donor ID 20001476) was 0.021%, the “Frequency (%)” value ([1]; Donor ID 20001487) was 0.000% and the “Frequency (%)” value ([1]; Donor ID 20061357) was 0.002%. For the same substance, the “Frequency (%)” value ([1]; Donor ID 20061599) was 0.000%, the “Frequency (%)” value ([1]; Donor ID 20061661) was 0.000% and the “Frequency (%)” value ([1]; Donor ID 20062224) was 0.016%. For the same substance, the “Frequency (%)” value ([1]; Donor ID 20062384) was 0.000%.

“Mutant (SEQ ID NO: 18) Mimic (SEQ ID NO 68): pair of tetramers loaded with mutant QLWVDSTPL (APC) and mimic QLWVDSTPV (PE) (not fully specified)” was tested, and the “Frequency (%)” value ([1]; Donor ID 17042380) was 0.01%, the “Frequency (%)” value ([1]; Donor ID 17042765) was 0% and the “Frequency (%)” value ([1]; Donor ID 18047563) was 0%. For the same substance, the “Frequency (%)” value ([1]; Donor ID 19053796) was 0%, the “Frequency (%)” value ([1]; Donor ID 19054141) was 0% and the “Frequency (%)” value ([1]; Donor ID 19054183) was 0%. For the same substance, the “Frequency (%)” value ([1]; Donor ID 19054445) was 0.01%, the “Frequency (%)” value ([1]; Donor ID 19054456) was 0% and the “T-cells positive for mutant-mimic pair” value ([1]; donor 19053796) was “positive”.

With “Mutant (SEQ ID NO: 22) Mimic (SEQ ID NO: 75): pair of tetramers loaded with mutant LLGRNSFEM (PE) and mimic LLGRNSFEL (APC) (not fully specified)” the “Frequency (%)” value ([1]; Donor ID 20001476) was 0.000%, the “Frequency (%)” value ([1]; Donor ID 20001487) was 0.000% and the “Frequency (%)” value ([1]; Donor ID 20061357) was 0.004%. The “Frequency (%)” value ([1]; Donor ID 20061599) was 0.000%, the “Frequency (%)” value ([1]; Donor ID 20061661) was 0.000% and the “Frequency (%)” value ([1]; Donor ID 20062224) was 0.015%. The “Frequency (%)” value ([1]; Donor ID 20062384) was 0.000%.

In the case of “Mutant (SEQ ID NO: 23) Mimic (SEQ ID NO: 78): pair of tetramers loaded with mutant VVPCEPPEV (PE) and mimic VLPCEPPEV (APC) (not fully specified; cysteine pairing not given here)”, the “Frequency (%)” value ([1]; Donor ID 20001476) is reported as 0.153%, the “Frequency (%)” value ([1]; Donor ID 20001487) is reported as 0.000% and the “Frequency (%)” value ([1]; Donor ID 20061357) is reported as 0.006%. For the same substance, the “Frequency (%)” value ([1]; Donor ID 20061599) was 0.000%, the “Frequency (%)” value ([1]; Donor ID 20061661) was 0.000% and the “Frequency (%)” value ([1]; Donor ID 20062224) was 0.000%. The “Frequency (%)” value ([1]; Donor ID 20062384) was 0.023%.
